Literature values, collected in patent publication US20210040357A1, “ELECTROCONDUCTIVE ADHESIVE COMPOSITION, CURED PRODUCT OF ELECTROCONDUCTIVE ADHESIVE, AND ELECTRONIC DEVICE” (TANAKA KIKINZOKU KOGYO K.K., priority 2018, published 2021).

Acid dissociation constant pKa | SMILES
4.64 | CC(C)C1=CC2=CC[C@@H]3[C@](C)(CCC[C@@]3(C)C(=O)O)[C@H]2CC1 [Abietic acid]
about 5.0 | CCCCCCCC/C=C\CCCCCCCC(=O)O [oleic acid]
about 5.0 | CCCCCCCCCCCCCCCCCC(=O)O [Stearic acid]
